# Values of other authors as cited in US20080138412A1, “Sustained release alfuzosin hydrochl formulation and method for their production” (priority 2006, published 2008).
# Counter-ions that a name gives are not always drawn.
compound,measurement,value
COc1cc2nc(N(C)CCCNC(=O)C3CCCO3)nc(N)c2cc1OC (stereo not shown) [Alfuzosin hydrochloride],half-life,about 9 hours
